# According to patent US9480688B2, “Pheromone compositions and their use to modify behavior in different vertebrate species” (priority 2011, dated 2016):
# Tested on: weaning foals
# Assay: Ointment test on weaning foals, behavioral observations
# Assay type: in vivo, horse
# Parameters: increase of vocalizations compared to control treatment: concentration or dose not given beside the values
# Protocol: A total of 20 foals divided into two groups (Group A, n=10; Group B, n=10) were weaned in pens of similar size and at the same time of the day (9 am), and were evaluated using a control and pheromone compositions. All horses were between 5 and 6 months of age and mixed breeds, primarily quarter horses. An ointment form of the composition comprising Androstenone was prepared in accordance with Table 7 for administering to the horses in this study.
# An ointment composition containing a different pheromone, 2-methylbut-2-enal (RP, 1 mg/mL), was also prepared for administration in a comparison study. An ointment containing no pheromone was prepared and used as control (CON). In group A, 5 foals were used for the control treatment, 3 foals were used for the RP treatment, and 2 foals were used for the Androstenone treatment. In group B, 3 foals were used for the control treatment, 3 foals were used for the RP treatment, and 4 foals were used for the Androstenone treatment. As such, a total of 8 foals were used for the control treatment, 6 foals were used for the RP treatment, and 6 foals were used for the Androstenone treatment in this entire study. Both of the pheromone formulations and the control were applied to each nostril. Control treatments were administered first to prevent any cross contamination to horses during day two.
# Behavioral observations were taken during the first 10 minutes (Group A and Group B) and then for four hours (Group B only) after the mares were separated from their foals. Foal behavior was recorded every minute during the first hour (or 10 minutes) and every 5 minutes for the remaining 3 hours of the study for Group B.
# Behaviors were not mutually exclusive.
# The number of shocks received by the electric fence (as foals tried to return to their mare) and vocalizations were recorded continuously. The total number of observations of each defined behaviors over the first 4 hours in Group B is presented in Table 9, which also provides the percentage of each behavior over the total number of recorded number of behaviors.
# [1] = Group B, first 4 hours after weaning
# [2] = Group B, first 4 hours after weaning, ointment in each nostril
# [3] = first 10 minutes post weaning (n = 20)
# [4] = first 10 minutes post weaning, Group A and Group B (n = 20)
smiles,measurement,setting,value
"CC=C(C)C=O [RP, 2-methylbut-2-enal, reference compound]",increase of vocalizations compared to control treatment,4 hour period after weaning,372%
same,effect on feeding (eating hay),"4 hour period after weaning, compared to control",decreased
same,Percent of observations: defecation,[1],0.3%
same,Percent of observations: drink,[1],0.3%
same,Percent of observations: feeding,[1],2.9%
same,Percent of observations: fight,[1],0.0%
same,Percent of observations: head shake,[1],0.1%
same,Percent of observations: interact,[1],0.0%
same,Percent of observations: lying,[1],0.0%
same,Percent of observations: pace,[1],1.4%
same,Percent of observations: paw,[1],0.0%
same,Percent of observations: shock,[1],1.0%
same,Percent of observations: stand,[1],30.8%
same,Percent of observations: trot,[1],3.1%
same,Percent of observations: vocal,[1],58.6%
same,Percent of observations: walk,[1],1.4%
same,Total observations: defecation,[2],2
same,Total observations: drink,[2],2
same,Total observations: feeding,[2],21
same,Total observations: fight,[2],0
same,Total observations: head shake,[2],1
same,Total observations: interact,[2],0
same,Total observations: lying,[2],0
same,Total observations: pace,[2],10
same,Total observations: paw,[2],0
same,Total observations: shock,[2],7
same,Total observations: stand,[2],220
same,Total observations: trot,[2],22
same,Total observations: vocal,[2],422
same,Total observations: walk,[2],10
same,increase of vocalizations over controls,first 10 minutes after weaning,42 fold
same,Percent of observations: defecation,[3],0.0%
same,Percent of observations: drink,[3],0.0%
same,Percent of observations: eat,[3],0.0%
same,Percent of observations: fight,[3],0.0%
same,Percent of observations: head shake,[3],0.0%
same,Percent of observations: interact,[3],0.0%
same,Percent of observations: lying,[3],0.0%
same,Percent of observations: pace,[3],6.1%
same,Percent of observations: paw,[3],0.0%
same,Percent of observations: shock,[3],3.3%
same,Percent of observations: stand,[3],24.2%
same,Percent of observations: trot,[3],66.7%
same,Percent of observations: vocal,[3],69.7%
same,Percent of observations: walk,[3],3.0%
same,Total observations: defecation,[4],0
same,Total observations: drink,[4],0
same,Total observations: eat,[4],0
same,Total observations: fight,[4],0
same,Total observations: head shake,[4],0
same,Total observations: interact,[4],0
same,Total observations: lying,[4],0
same,Total observations: pace,[4],2
same,Total observations: paw,[4],0
same,Total observations: shock,[4],4
same,Total observations: stand,[4],8
same,Total observations: trot,[4],22
same,Total observations: vocal,[4],85
same,Total observations: walk,[4],1
